Results on 7 compounds are retold here after US20100003724A1, “CHEMICALLY MODIFIED NUCLEOSIDE 5'-TRIPHOSPHATES FOR THERMALLY INITIATED AMPLIFICATION OF NUCLEIC ACID” (priority 2008, published 2010).

Like-named read-outs stand apart in the source and are kept apart here.

For data set [1], the system named is Lambda DNA and HIV-1 DNA systems. The note with it: one 3′-substituted dTTP derivative in place of natural dTTP; compared to all four natural dNTPs.
Experimental: For the Lambda DNA and HIV-1 DNA systems (Table 2), PCR conditions were used where non-specific amplification products, including primer dimers, readily formed in the presence of template. These conditions employed 1 μM concentration of both the forward and reverse oligonucleotide primers, 10 HIV-1 or 10,000 Lambda DNA copies of template, 0.2 mM each of dNTP or 3′-substituted dNTP, and 2.0 mM MgCl2. Each mixture contained 50 ng of Human Genomic DNA. The thermal cycling parameters were as follows: 95° C. for 2 min; 40 cycles of [95° C. for 40 sec; 56° C. for 30 sec; 72° C. for 2 min]; 72° C. for 7 min.
In data set [2] the target is Taq DNA polymerase (Thermus aquaticus, UniProt P19821). Nature of the data set: Primer extension with Taq DNA polymerase at room temperature. The note with it: 25 units of enzyme.
Text: The extension experiments were repeated with Taq DNA polymerase at room temperature utilizing 25 units of enzyme and either 3′-THF-dTTP or 3′-Ac-dTTP.
For data set [3] the following is noted: for Concentration of unmodified dTTP: 250 μM solution of 3′-substituted dTTP, 95° C., PCR buffer (pH 8.4 at 25° C.); for cleavage of the 3′-ester group: within 60 minutes of incubation. How it is done:
Conversion of the 3′-substituted dTTP to the corresponding unmodified dTTP was investigated in PCR buffer (pH 8.4 at 25° C., Table 1) at 20° C. and 95° C. The reactions were monitored by analysis of the incubated mixtures by reverse-phase and anion-exchange HPLC.

Data set [4] addresses Klenow (exo-) DNA polymerase (Escherichia coli, UniProt P00582, D355A/E357A). The conditions noted are these: for substrate for Klenow (exo-) DNA polymerase (incorporation into the primer): room temperature, unheated 3′-substituted dTTP; for substrate for Klenow (exo-) DNA polymerase (incorporation and extension): after a 40 minute preheating step at 95° C.
Experimental: The ability of Klenow (exo-) DNA polymerase to perform room temperature primer extensions of a pre-annealed primer/template duplex was evaluated in 50 mM NaCl, 10 mM Tris-HCl (pH 7.9), 10 mM MgCl, 1 mM DTT, 0.5 units of enzyme, 0.2 mM dATP and in the presence of one of the following 3′-substituted dTTP derivatives: 3′-THP-dTTP, 3′-MTHP-dTTP or 3′-THF-dTTP (FIG. 4 (top)).
Data set [5] concerns HIV-1 system (365 bp HIV-1 fragment). Nature of the data set: Hot Start PCR with 3′-THF-dNTPs substituted for natural dNTPs. The format is biochemical. The conditions noted are these: 3′-THF dNTP substituted for its natural dNTP. How it is done: Each mixture contained 50 ng of Human Genomic DNA.
All permutations of substitution of one, two, three or four 3′-THF-dNTPs (from the group of 3′-THF-dATP, […], 3′-THF-dCTP and 3′-THF-dTTP) were examined for their natural counterpart and the resultant effect on reducing primer dimer formation. […] A combined substitution of two or more 3′-THF derivatives of dNTPs for natural dNTPs further improved PCR performance. Thus, combination of 3′-THF-dTTP and 3′-THF-dATP, as a replacement for dTTP and dATP, nearly completely eliminated non-specific amplification products in the HIV-1 system (approximately 10-fold improvement, FIG. 7). Overall, there was a strong correlation between using more than one type of 3′-substituted dNTP in a PCR mixture with an efficiency and specificity of amplicon production.

Klenow (exo-) DNA polymerase, sequence (P00582 324-928 D355A/E357A): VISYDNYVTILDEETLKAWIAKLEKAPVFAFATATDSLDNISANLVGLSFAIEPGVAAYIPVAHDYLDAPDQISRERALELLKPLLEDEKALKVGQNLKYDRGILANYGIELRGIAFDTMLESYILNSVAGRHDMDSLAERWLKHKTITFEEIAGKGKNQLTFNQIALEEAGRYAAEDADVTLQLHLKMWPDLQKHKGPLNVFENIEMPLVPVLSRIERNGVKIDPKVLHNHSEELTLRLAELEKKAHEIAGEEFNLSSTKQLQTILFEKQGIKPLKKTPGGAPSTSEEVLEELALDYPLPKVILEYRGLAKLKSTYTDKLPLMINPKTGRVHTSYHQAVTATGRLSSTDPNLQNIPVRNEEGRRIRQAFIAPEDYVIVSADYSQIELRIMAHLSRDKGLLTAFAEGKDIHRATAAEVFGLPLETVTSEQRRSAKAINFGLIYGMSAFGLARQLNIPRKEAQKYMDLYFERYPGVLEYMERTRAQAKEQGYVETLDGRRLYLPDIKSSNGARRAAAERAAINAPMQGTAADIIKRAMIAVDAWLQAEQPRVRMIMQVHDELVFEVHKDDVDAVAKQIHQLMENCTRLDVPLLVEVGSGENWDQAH
Taq DNA polymerase, sequence (P19821 whole entry): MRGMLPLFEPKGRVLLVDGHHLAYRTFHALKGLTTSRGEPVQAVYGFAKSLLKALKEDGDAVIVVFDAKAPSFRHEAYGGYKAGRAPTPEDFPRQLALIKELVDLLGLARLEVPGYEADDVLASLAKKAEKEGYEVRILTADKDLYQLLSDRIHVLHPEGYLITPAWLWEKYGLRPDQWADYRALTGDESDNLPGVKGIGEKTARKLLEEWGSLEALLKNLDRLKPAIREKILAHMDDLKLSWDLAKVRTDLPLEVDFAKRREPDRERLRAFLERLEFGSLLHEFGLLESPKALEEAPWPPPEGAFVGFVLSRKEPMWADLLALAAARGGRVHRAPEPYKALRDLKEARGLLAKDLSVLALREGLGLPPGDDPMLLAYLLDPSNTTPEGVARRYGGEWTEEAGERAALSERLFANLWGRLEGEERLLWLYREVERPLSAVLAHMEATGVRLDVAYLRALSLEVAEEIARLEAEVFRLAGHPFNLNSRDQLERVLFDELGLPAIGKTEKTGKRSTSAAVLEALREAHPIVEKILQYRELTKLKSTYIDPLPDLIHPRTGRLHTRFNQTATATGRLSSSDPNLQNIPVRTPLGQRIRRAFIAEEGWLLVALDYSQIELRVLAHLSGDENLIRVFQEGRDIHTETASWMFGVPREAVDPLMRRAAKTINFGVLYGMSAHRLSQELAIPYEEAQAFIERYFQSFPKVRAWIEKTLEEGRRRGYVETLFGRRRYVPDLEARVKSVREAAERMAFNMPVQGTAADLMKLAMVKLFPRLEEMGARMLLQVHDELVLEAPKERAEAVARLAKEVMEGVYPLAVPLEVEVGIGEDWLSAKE

Turning to `CC(=O)OC1CC(n2cc(C)c(=O)[nH]c2=O)OC1COP(=O)(O)OP(=O)(O)OP(=O)(O)O` (stereo not drawn) [3′-Ac-dTTP, 3′-O-acetyl-dTTP], the “overall PCR performance” value in data set [1] was “not as good as with natural dTTP”. For the same compound, the “substrate for Taq DNA polymerase” value in data set [2] is recorded as “not substrates”. Besides, the “Concentration of unmodified dTTP” value stood at 0 µM in data set [3] (2 min), 5 µM in data set [3] (10 min) and 18 µM in data set [3] (20 min). In addition, the “cleavage of the 3′-acetyl group” value in data set [3] (PCR buffer, room temperature, after 24 hours of incubation) was determined as 6%. Further, the “substrate for Klenow (exo-) DNA polymerase (incorporation into the primer)” value (“substrate … (incorporation into the primer)” for short) in data set [4] is listed as “not a substrate”.

Regarding `COC1(O[C@H]2C[C@H](n3cc(C)c(=O)[nH]c3=O)O[C@@H]2COP(=O)(O)OP(=O)(O)OP(=O)(O)O)CCOCC1` [3′-MTHP-dTTP], the “Concentration of unmodified dTTP” value in data set [3] (2 min) was 2 µM; in data set [3] (10 min), 21 µM; in data set [3] (20 min), 47 µM. In data set [4], the “substrate for Klenow (exo-) DNA polymerase (incorporation and extension)” value (from here on “substrate … (incorporation and extension)”) is given as “became substrates for enzyme”. In data set [4], the “substrate … (incorporation into the primer)” value is recorded as “not substrates”.

Turning to `COCC(=O)O[C@H]1C[C@H](n2cc(C)c(=O)[nH]c2=O)O[C@@H]1COP(=O)(O)OP(=O)(O)OP(=O)(O)O` [3′-O[CH3OAc]], the “Concentration of unmodified dTTP” value in data set [3] (2 min) worked out at 35 µM; in data set [3] (10 min), 140 µM; in data set [3] (20 min), 195 µM. For the same compound, in data set [3] (PCR buffer, room temperature), the “cleavage of the 3′-ester group” value was 4%.

Take `Cc1cn([C@H]2C[C@H](OC(=O)COc3ccccc3)[C@@H](COP(=O)(O)OP(=O)(O)OP(=O)(O)O)O2)c(=O)[nH]c1=O` [3′-O[PhOAc]]: the “Concentration of unmodified dTTP” value in data set [3] (2 min) came to 50 µM; in data set [3] (10 min), 170 µM; in data set [3] (20 min), 209 µM. In data set [3] (PCR buffer, room temperature), the “cleavage of the 3′-ester group” value is 10%.

With `Nc1ncnc2c1ncn2C1CC(OC2CCCO2)C(COP(=O)(O)OP(=O)(O)OP(=O)(O)O)O1` (stereo not drawn) [3′-THF-dATP], in data set [5], the “PCR performance (non-specific amplification products, specific amplicon formation)” value is “strong reduction of both non-specific amplification products and an increase of specific amplicon formation”.

Turning to `Cc1cn([C@H]2C[C@H](OC3CCCO3)[C@@H](COP(=O)(O)OP(=O)(O)OP(=O)(O)O)O2)c(=O)[nH]c1=O` (stereo partly drawn) [3′-THF-dTTP], the “substrate for Taq DNA polymerase” value in data set [2] is given as “not substrates”. The “Concentration of unmodified dTTP” value in data set [3] (2 min) stood at 7 µM; in data set [3] (10 min), 39 µM; in data set [3] (20 min), 57 µM. Moreover, in data set [4], the “substrate … (incorporation and extension)” value is recorded as “became substrates for enzyme”. The “substrate … (incorporation into the primer)” value in data set [4] is “not substrates”.

For `Cc1cn([C@H]2C[C@H](OC3CCCCO3)[C@@H](COP(=O)(O)OP(=O)(O)OP(=O)(O)O)O2)c(=O)[nH]c1=O` (stereo partly drawn) [3′-THP-dTTP], the “overall PCR performance” value in data set [1] is reported as “not as good as with natural dTTP”. For the same compound, the entries for the “Concentration of unmodified dTTP” value in data set [3] (2 min), in data set [3] (10 min) and in data set [3] (20 min) were “≦1 μM”, 10 µM and 16 µM, respectively. The “substrate … (incorporation and extension)” value in data set [4] was “became substrates for enzyme”. Also, the “substrate … (incorporation into the primer)” value in data set [4] is recorded as “not substrates”.
